From patent publication US20200187499A1, “SUBSTITUTED BENZYL-4-AMINOPICOLINIC ESTERS AND PYRIMIDINO-4-CARBOXYLIC ESTERS, METHODS FOR THE PRODUCTION THEREOF, AND USE THEREOF AS HERBICIDES AND PLANT GROWTH REGULATORS” (Bayer CropScience Aktiengesellschaft, priority 2017, published 2020) come the findings set out here.

What all share (assay type): in vivo
Assay [1] has as its system AMARE. Put plainly: Post-emergence herbicidal action. The settings on record: Table 5, post-emergence (PO), 320 g/ha, assessed after about 3 weeks. The gist of the method: (§1)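 After sowing in sandy loam, plants grew 2 to 3 weeks in the greenhouse, then at the one-leaf stage received the formulated compound as a foliar aqueous spray (600 to 800 l/ha, 0.2% wetting agent). Effect is given as visual percent damage relative to untreated controls.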

Assay [2] concerns SETVI. Description: Post-emergence herbicidal action. The settings on record: Table 5, post-emergence (PO), 320 g/ha, assessed after about 3 weeks. The gist of the method:
as §1

For assay [3], the system named is ABUTH. Description: Post-emergence herbicidal action. The settings on record: Table 5, post-emergence (PO), 320 g/ha, assessed after about 3 weeks. The method in brief: as §1
The test system of assay [4] is STEME. Description: Post-emergence herbicidal action. The following applies: Table 5, post-emergence (PO), 320 g/ha, assessed after about 3 weeks. The gist of the method: as §1
In assay [5] the test system is VIOTR. Description: Post-emergence herbicidal action. The settings on record: Table 5, post-emergence (PO), 320 g/ha, assessed after about 3 weeks. The gist of the method: as §1
Assay [6] deals with ECHCG. Put plainly: Post-emergence herbicidal action. The following applies: Table 5, post-emergence (PO), 320 g/ha, assessed after about 3 weeks. The gist of the method:
as §1

Assay [7] relates to PHBPU. Description: Post-emergence herbicidal action. The settings on record: Table 5, post-emergence (PO), 320 g/ha, assessed after about 3 weeks. The method in brief:
as §1

In assay [8] the test system is POLCO. Description: Post-emergence herbicidal action. The following applies: Table 5, post-emergence (PO), 320 g/ha, assessed after about 3 weeks. The method in brief: as §1
Assay [9] has as its system AMARE. Description: Pre-emergence herbicidal action. The settings on record: Table 2, pre-emergence (PE), 320 g/ha, scored after 3 weeks. The method in brief: (§2)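 Weed seeds sown in sandy loam and covered with soil; compounds formulated as WP or EC applied to the covering soil surface as aqueous suspension/emulsion at 600 to 800 l/ha water plus 0.2% wetting agent. Greenhouse growth; damage scored visually after 3 weeks against untreated controls (100% = plants dead, 0% = like control).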

The test system of assay [10] is SETVI. Put plainly: Pre-emergence herbicidal action. The following applies: Table 2, pre-emergence (PE), 320 g/ha, scored after 3 weeks. The method in brief: as §2
Assay [11] relates to ABUTH. Put plainly: Pre-emergence herbicidal action. The settings on record: Table 2, pre-emergence (PE), 320 g/ha, scored after 3 weeks. The gist of the method: as §2
The subject of assay [12] is VIOTR. Description: Pre-emergence herbicidal action. The following applies: Table 2, pre-emergence (PE), 320 g/ha, scored after 3 weeks. The method in brief:
as §2

Assay [13] relates to ECHCG. Put plainly: Pre-emergence herbicidal action. The following applies: Table 2, pre-emergence (PE), 320 g/ha, scored after 3 weeks. The gist of the method:
as §2

Assay [14] deals with POLCO. Description: Pre-emergence herbicidal action. The settings on record: Table 2, pre-emergence (PE), 320 g/ha, scored after 3 weeks. The gist of the method: as §2
Assay [15] deals with ALOMY. Description: Pre-emergence herbicidal action. The following applies: Table 2, pre-emergence (PE), 320 g/ha, scored after 3 weeks. The method in brief: as §2

For the molecule `Nc1cc(-c2ccc3sccc3c2)nc(C(=O)OCc2ccc(F)cc2F)c1Cl` [Example I-18], the “Herbicidal action against AMARE” value in assay [1] and in assay [9] was 100% throughout. Further, the “Herbicidal action against SETVI” value stood at 90% in assay [2] and 70% in assay [10]. The figures for the “Herbicidal action against ABUTH” value in [3] and in [11] were 100% and 40%, respectively. In [4], the “Herbicidal action against STEME” value turned out to be 80%. For the same molecule, the “Herbicidal action against VIOTR” value in assay [5] is given as 90%; in assay [12], 20%. In addition, the “Herbicidal action against ECHCG” value in assay [6] and in assay [13] was 100% throughout. Besides, in assay [7], the “Herbicidal action against PHBPU” value was 80%. For the same molecule, the “Herbicidal action against POLCO” value is given as 80% in assay [8] and 10% in assay [14]. The “Herbicidal action against ALOMY” value in assay [15] is reported as 30%.
`Nc1cc(-c2ccc3ccoc3c2)nc(C(=O)OCc2cccc(F)c2)c1Cl` [Example I-02]: the “Herbicidal action against AMARE” value in assay [1] and in assay [9] was 100% each time. The “Herbicidal action against SETVI” value was 100% in assay [2] and 90% in [10]. Further, the results for the “Herbicidal action against ABUTH” value in assay [3] and in assay [11] were 90% and 30%, respectively. Further, in [4], the “Herbicidal action against STEME” value turned out to be 100%. Also, the “Herbicidal action against VIOTR” value in assay [5] and in assay [12] was 70% in each case. The “Herbicidal action against ECHCG” value in assay [6] stood at 90%; in assay [13], 100%. The “Herbicidal action against PHBPU” value in [7] is listed as 70%. Besides, the “Herbicidal action against POLCO” value in [8] and in assay [14] was 100% throughout. In [15], the “Herbicidal action against ALOMY” value is listed as 80%.
For the molecule `Nc1cc(-c2ccc3occc3c2)nc(C(=O)OCc2ccc(F)cc2)c1Cl` [Example I-05], the “Herbicidal action against AMARE” value in [1] amounted to 100%; in assay [9], 90%. Besides, the “Herbicidal action against SETVI” value is given as 100% in [2] and 90% in [10]. Besides, the “Herbicidal action against ABUTH” value came out at 100% in [3] and 50% in assay [11]. Moreover, the “Herbicidal action against STEME” value in assay [4] stood at 100%. The “Herbicidal action against VIOTR” value in assay [5] turned out to be 90%; in assay [12] it was 50%. Moreover, the “Herbicidal action against ECHCG” value in assay [6] came to 100%; in assay [13], 90%. The “Herbicidal action against PHBPU” value in assay [7] turned out to be 80%. Moreover, the “Herbicidal action against POLCO” value in [8] is on record as 30%; in assay [14] it was 90%. The “Herbicidal action against ALOMY” value in [15] is listed as 30%.
As to `Nc1cc(-c2ccc3ccsc3c2)nc(C(=O)OCc2cccc(F)c2)c1Cl` [Example I-10], the “Herbicidal action against AMARE” value in [1] and in [9] was 100% throughout. In addition, the “Herbicidal action against SETVI” value in [2] and in assay [10] was 90% each time. Besides, the “Herbicidal action against ABUTH” value in assay [3] is 100%; in assay [11], 30%. Also, in assay [4], the “Herbicidal action against STEME” value was 100%. For the same molecule, the “Herbicidal action against VIOTR” value in [5] was found to be 70%; in assay [12] it was 40%. In addition, the “Herbicidal action against ECHCG” value amounted to 90% in assay [6] and 100% in [13]. For the same molecule, the “Herbicidal action against PHBPU” value in [7] stood at 80%. The “Herbicidal action against POLCO” value is recorded as 100% in [8] and 0% in assay [14]. Further, the “Herbicidal action against ALOMY” value in assay [15] amounted to 70%.
`Nc1cc(-c2ccc3sccc3c2)nc(C(=O)OCc2cccc(F)c2)c1Cl` [Example I-09]: the “Herbicidal action against AMARE” value came to 100% in assay [1] and 90% in assay [9]. Further, the “Herbicidal action against SETVI” value in [2] and in [10] was 90% each time. Further, the figures for the “Herbicidal action against ABUTH” value in assay [3] and in assay [11] were 100% and 70%, respectively. In assay [4], the “Herbicidal action against STEME” value is listed as 100%. The entries for the “Herbicidal action against VIOTR” value in assay [5] and in assay [12] were 90% and 60%, respectively. Further, the “Herbicidal action against ECHCG” value in assay [6] and in assay [13] was 100% throughout. Besides, the “Herbicidal action against PHBPU” value in assay [7] worked out at 80%. The “Herbicidal action against POLCO” value in assay [8] is recorded as 70%; in [14], 90%. Further, in assay [15], the “Herbicidal action against ALOMY” value amounted to 20%.
As to `Nc1cc(-c2ccc3sccc3c2)nc(C(=O)OCc2ccc(C(F)(F)F)cc2)c1Cl` [Example I-16], the “Herbicidal action against AMARE” value turned out to be 100% in assay [1] and 80% in [9]. The “Herbicidal action against SETVI” value is 90% in assay [2] and 80% in assay [10]. For the same molecule, the “Herbicidal action against ABUTH” value in [3] is listed as 100%; in assay [11], 80%. Further, the “Herbicidal action against STEME” value in assay [4] worked out at 80%. Moreover, the “Herbicidal action against VIOTR” value came to 90% in assay [5] and 30% in [12]. Moreover, the “Herbicidal action against ECHCG” value in [6] worked out at 90%; in assay [13] it was 100%. For the same molecule, the “Herbicidal action against PHBPU” value in [7] worked out at 80%. Moreover, the entries for the “Herbicidal action against POLCO” value in assay [8] and in assay [14] were 90% and 70%, respectively. The “Herbicidal action against ALOMY” value in [15] was 30%.
On to `Nc1cc(-c2ccc3ccsc3c2)nc(C(=O)OCc2ccccc2F)c1Cl` [Example I-01], for which the “Herbicidal action against AMARE” value in [1] and in assay [9] was 100% throughout. Besides, the “Herbicidal action against SETVI” value in assay [2] amounted to 80%; in [10], 90%. Moreover, the “Herbicidal action against ABUTH” value in assay [3] amounted to 100%; in assay [11], 80%. The “Herbicidal action against STEME” value in [4] is recorded as 100%. For the same molecule, the “Herbicidal action against VIOTR” value in [5] is reported as 50%; in assay [12], 70%. The entries for the “Herbicidal action against ECHCG” value in assay [6] and in assay [13] were 90% and 100%, respectively. Besides, the “Herbicidal action against PHBPU” value in assay [7] stood at 90%. The “Herbicidal action against POLCO” value in assay [8] and in assay [14] was 100% throughout. For the same molecule, the “Herbicidal action against ALOMY” value in assay [15] turned out to be 60%.
Take `COc1ccc(COC(=O)c2nc(-c3ccc4ccoc4c3)c(F)c(N)c2Cl)cc1` [Example I-03]: the “Herbicidal action against AMARE” value in assay [1] and in [9] was 100% throughout. For the same molecule, the “Herbicidal action against SETVI” value in [2] was 90%; in [10], 40%. Besides, the entries for the “Herbicidal action against ABUTH” value in [3] and in assay [11] were 100% and 80%, respectively. For the same molecule, in [4], the “Herbicidal action against STEME” value turned out to be 100%. The “Herbicidal action against VIOTR” value in [5] is on record as 100%; in assay [12], 90%. Moreover, the “Herbicidal action against ECHCG” value in assay [6] came out at 100%; in assay [13], 90%. Moreover, the “Herbicidal action against PHBPU” value in [7] is 40%. The figures for the “Herbicidal action against POLCO” value in assay [8] and in assay [14] were 40% and 50%, respectively. Also, the “Herbicidal action against ALOMY” value in [15] was 20%.
